Measurements taken from publication PMC5760527, “Connexin 43 Hemichannel as a Novel Mediator of Sterile and Infectious Inflammatory Diseases” (Scientific Reports, 2018).

Experiments:
[1] = test system: macrophage Cx43 hemichannel activities, RAW 264.7 cells; assay: Lucifer Yellow dye uptake, hemichannel permeability, calcium-depleted; assay type: cell-based, murine; conditions: P5 20 μM, LPS 0.5 μg/ml, 16 h, LY 15 min, P < 0.05 versus +LPS
From the text: Because connexon is the structural unit for both hemichannel (1 connexon) and gap junction (2 connexons from opposing cells), which are both permeable to similar molecular weight molecules, such as the Lucifer yellow (LY). Thus, the LY dye uptake could be used to determine the channel permeability of both hemichannel (as indicated by the rate of LY entry into the cells) and gap junction channels (as judged by the distance of intercellular LY diffusion). The LY dye uptake assay relied on the ability of this dye present in the extracellular milieu to cross the plasma membrane and became concentrated inside of the cell, which could be quantified by fluorescence microscopy. To determine the effects of Cx43 mimetic peptides on hemichannel permeability, RAW 264.7 cells were subjected to LPS stimulation (0.5 µg/ml, 16 h) before replacing the medium with fresh DMEM containing various Cx43 mimetic peptides, GAP26 (100 µM), TAT-GAP19 (200 µM) or P5 (20 µM). Following a brief incubation (15 min), EGTA (1 mM) was added to deplete free calcium prior to the addition of LY dye (1%). Fifteen min later, cells were fixed with 2% paraformaldehyde, and the number of LY-positive cells was counted. The ratio of LY-positive cells vs. total cell counts (DAPI staining) was used as the measurement of hemichannel permeability.

[2] = test system: Cx43 protein expression, NIH 3T3 fibroblasts; assay: Cx43 protein expression, Western blotting, NIH 3T3 cells; assay type: cell-based; conditions: prolonged incubation, data not shown
Procedure: The cellular levels of Cx43 and phosphor-PKR were determined by Western blotting analysis using an affinity-purified rabbit anti-Cx43 or anti-phospho-PKR (Thr^451) IgGs as previously described[9],[25],[53]. The levels of HMGB1 in the culture medium were determined by Western blotting analysis as described previously. The level of β-actin was used as a reference of total cellular proteins. Briefly, an equal volume of culture medium (conditioned by identical macrophage cell numbers) was harvested, and protein content was concentrated by ultrafiltration (with a molecular weight cutoff of 10.0 kDa), and then normalized to the same volume with a sample buffer. Proteins in equal sample volume were resolved on sodium dodecyl sulfate (SDS)-polyacrylamide gels, and transferred to polyvinylidene difluoride (PVDF) membranes. After blocking with 5% nonfat milk, the membrane was incubated with respective antibodies (anti-Cx43, 1:1000; anti-phospho-PKR, 1:1000; anti-HMGB1, 1:1,000; anti-β-actin. 1:5,000) overnight. Subsequently, the membrane was incubated with the appropriate secondary antibody, and the immunoreactive bands were visualized by chemiluminescence techniques.

Cx43 EL1 peptide = biological target: T1, Cx43 EL1 peptide (Homo sapiens, UniProt P17302); assay: Surface Plasmon Resonance, Cx43 EL1 peptide; assay type: binding; conditions: synthetic full-length EL1 peptide, data not shown
T1 construct: synthetic full-length Cx43 EL1 or EL2 peptide as judged by the Surface Plasmon Resonance Analysis
T1 sequence (P17302 45-76 limits assumed): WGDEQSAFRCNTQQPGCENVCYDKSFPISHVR

[3] = test system: LPS-induced ATP release, RAW 264.7 cells; assay: ATP release assay; assay type: cell-based, murine; conditions: P5 20 µM; LPS 1 µg/ml; RAW 264.7, serum-free DMEM; luciferin:luciferase; P < 0.05 versus +LPS
Procedure: In addition to the LY dye uptake, we also employed the ATP release assay to measure the Cx43 hemichannel activities. The current gold standard for ATP quantification relied on luciferin:luciferase chemistry where the enzyme luciferase catalyzed the oxidation of ATP and luciferin ultimately resulting in the generation of a photon which could be quantified by luminometry using a luminometer plate reader (Synergy H1 Hybrid, Biotek, Winooski, U.S.A.) and the amount of ATP was calculated from standard curve. Briefly, RAW 264.7 cells were cultured in serum-free DMEM medium, and stimulated with LPS (1 µg/ml) in the absence or presence of Cx43 mimetic peptide (P5, 20 µM). The cell-conditioned culture medium was collected and subjected to ATP measurement. We used the Molecular Probes® ATP Determination Kit (Cat. # A22066, Life Technologies), which was based on luciferase’s absolute requirement for ATP in producing light (emission maximum ~560 nm at pH 7.8), to measure the extracellular ATP levels in LPS-stimulated RAW 264.7 cells.

[4] = test system: LPS-induced production of nitric oxide; assay: Nitric oxide production; assay type: cell-based; conditions: data not shown
[5] = test system: gap junctional intercellular communication, NIH 3T3 fibroblasts; assay: Scrape-loading assay of GJ intercellular communication; assay type: cell-based; conditions: LY (444 Da) and rhodamine dextran (10,000 Da), overnight or 20 min incubation, 2 min diffusion
Procedure: We used NIH 3T3 fibroblasts to investigate the effects of Cx43 mimetic peptides on GJ permeability employing a technique termed scrape-loading. After overnight or 20 min incubation with or without Cx43 mimetic peptides in DMEM, EGTA was added to DMEM to deplete free calcium. Immediately afterwards, 1% LY and 1% rhodamine dextran was added into PBS, followed by scraping the cell monolayer with a pipette tip loading tracers into cytoplasmic compartment of scraped cells. Tracers were allowed to diffuse to adjacent cells for 2 min before immobilized by PF fixation for 10 minutes. Cells were subsequently extensively washed in PBS three times and coversliped to allow examination of LY diffusion.

[6] = test system: cytokines and chemokines, RAW 264.7 cells; assay: Cytokine antibody array; assay type: cell-based, murine; conditions: P5 10 μM, LPS 16 h, 62-cytokine antibody array
Procedure: Murine Cytokine Antibody Arrays (Cat. No. M0308003, RayBiotech Inc., Norcross, GA, USA), which respectively detect 62 cytokines on one membrane, were used to determine cytokine levels in macrophage-conditioned culture medium as previously described[51],[54]. Briefly, the membranes were sequentially incubated with equal volumes cell-conditioned culture medium (200 μl), primary biotin-conjugated antibodies, and horseradish peroxidase–conjugated streptavidin.

[7] = test system: LPS-induced trypan blue uptake, RAW 264.7 cells; assay: Trypan blue uptake assay; assay type: cell-based, murine; conditions: P5 10 µg/ml, LPS 1.0 µg/ml, 16 h, 0.08% trypan blue, P < 0.05 versus +LPS
Procedure: Specifically, murine macrophage-like RAW 264.7 cells were stimulated with LPS (1.0 µg/ml) in the absence or presence of P5 peptide (10 µg/ml) for 16 h, and the culture medium was then replaced with 1 × PBS containing 0.08% trypan blue (Cat. # 15250-061, Invitrogen). Phase contrast images of multiple fields were randomly captured, and the percentage of trypan blue-stained cells was calculated.

What does the source list for “ENVCYD [P5, cysteine-containing Cx43 EL1 mimetic hexamer peptide, P5 (ENVCYD)]”?
effect on endotoxin-induced hemichannel activities (LY dye uptake) [1]: significantly inhibited the endotoxin-induced elevation of hemichannel activities; Cx43 protein expression [2]: did not alter Cx43 protein expression; binding to Cx43 EL1 peptide (Cx43 EL1 peptide): did not find evidence of P5 interacting; LPS-induced ATP release [3]: significantly attenuated the LPS-induced ATP release; LPS-induced production of nitric oxide [4]: did not affect the LPS-induced production of nitric oxide; gap junctional transfer of LY / RD immobility [5]: no obvious difference in the LY diffusion or RD immobility patterns; other cytokines and chemokines [6]: did not affect; LPS-induced trypan blue uptake [7]: significantly suppressed the LPS-induced elevation of trypan blue uptake
